The molecules below were run against Tyrosine-protein kinase JAK2 [Y1007F,Y1008F] (Homo sapiens, UniProt O60674, Y1007F/Y1008F) (assay: JAK2 Binding Assay).
Description: JAK2 (JH1 domain-catalytic, Y1007F, Y1008F) kinase was expressed as N-terminal fusion to the DNA binding domain of NFkB in transiently transfected HEK293 cells and subsequently tagged with DNA for qPCR detection. Streptavidin-coated magnetic beads were treated with biotinylated small molecule ligands for 30 minutes at room temperature to generate affinity resins for kinase assays. The liganded beads were blocked with excess biotin and washed with blocking buffer (SeaBlock (Pierce), 1% BSA, 0.05% Tween 20, 1 mmol/L DTT) to remove unbound ligand and to reduce nonspecific phage binding. Binding reactions were assembled by combining kinases, liganded affinity beads, and test compounds in 1× binding buffer (1× PBS, 0.05% Tween 20, 0.1% BSA, 1 mmol/L DTT). Test compound was prepared as 111× stocks in 100% DMSO and directly diluted into the assay wells. All reactions were performed in polypropylene 384-well plates in a final volume of 0.02 mL. The assay plates were incubated at room temperature with shaking for 1 hour and the affinity beads were washed with wash buffer (1× PBS, 0.05% Tween 20). The beads were then re-suspended in elution buffer (1× PBS, 0.05% Tween 20, 0.5 μmol/L non-biotinylated affinity ligand) and incubated at room temperature with shaking for 30 minutes. The kinase concentration in the eluate was measured by qPCR.

Sequence of Tyrosine-protein kinase JAK2 [Y1007F,Y1008F] (O60674 whole entry Y1007F/Y1008F, the tested form may be a part): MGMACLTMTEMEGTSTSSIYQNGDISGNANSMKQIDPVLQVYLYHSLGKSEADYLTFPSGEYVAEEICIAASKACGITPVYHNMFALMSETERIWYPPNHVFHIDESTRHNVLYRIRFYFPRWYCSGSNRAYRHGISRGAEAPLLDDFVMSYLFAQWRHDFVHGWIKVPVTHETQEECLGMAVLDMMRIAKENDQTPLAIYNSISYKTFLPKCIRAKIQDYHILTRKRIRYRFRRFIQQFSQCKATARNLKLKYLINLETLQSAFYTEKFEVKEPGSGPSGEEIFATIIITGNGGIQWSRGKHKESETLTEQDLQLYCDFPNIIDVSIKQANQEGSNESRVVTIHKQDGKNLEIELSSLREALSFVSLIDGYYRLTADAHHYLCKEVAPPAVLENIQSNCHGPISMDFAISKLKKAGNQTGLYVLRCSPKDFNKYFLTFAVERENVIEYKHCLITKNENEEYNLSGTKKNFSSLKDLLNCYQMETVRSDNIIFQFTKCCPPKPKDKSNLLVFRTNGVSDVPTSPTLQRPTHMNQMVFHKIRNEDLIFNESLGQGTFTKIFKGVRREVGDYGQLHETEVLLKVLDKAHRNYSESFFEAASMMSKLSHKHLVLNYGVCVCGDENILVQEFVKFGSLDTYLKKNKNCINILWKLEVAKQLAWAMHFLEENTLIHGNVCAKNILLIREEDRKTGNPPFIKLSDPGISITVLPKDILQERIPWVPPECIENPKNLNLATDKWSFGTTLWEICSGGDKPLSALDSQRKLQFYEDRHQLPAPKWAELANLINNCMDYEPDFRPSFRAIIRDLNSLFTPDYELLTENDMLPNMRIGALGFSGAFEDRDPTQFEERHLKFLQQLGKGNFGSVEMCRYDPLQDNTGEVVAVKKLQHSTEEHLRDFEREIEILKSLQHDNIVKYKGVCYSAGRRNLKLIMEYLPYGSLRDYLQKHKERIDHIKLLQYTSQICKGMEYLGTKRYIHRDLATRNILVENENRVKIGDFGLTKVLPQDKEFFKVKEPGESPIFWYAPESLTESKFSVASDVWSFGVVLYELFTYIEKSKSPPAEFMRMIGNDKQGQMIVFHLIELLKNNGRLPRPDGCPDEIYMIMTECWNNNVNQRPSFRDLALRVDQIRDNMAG

Kd [nM]	SMILES
< 10	CN(C(=O)Nc1cc(C(F)(F)F)cn(C)c1=O)[C@@H]1CCN(c2cnc3[nH]ncc3c2)C[C@@H]1F [US20240116892, Compound I-62-b]
< 10	CN(C(=O)Nc1cc(C(F)(F)F)cn(C)c1=O)C12CC(c3cnc4[nH]ccc4c3)(C1)C2 [US20240116892, Compound I-121]
< 10	Cn1cc(C(F)(F)F)cc(NC(=O)N2CCO[C@@H]3CN(c4cnc(NC(=O)C5CC5)cn4)CC[C@H]32)c1=O [US20240116892, Compound I-148-b]
